Where a name gives a salt, the structure may show the parent alone.
Assays:
[1] = target: T1, recombinant human 5-HT2B receptor (Homo sapiens, UniProt P41595); assay: radioligand binding to serotonin receptor 5-HT2B ([3H] Lysergic acid diethylamide)
T1 construct: expressed in transfected cells; host or cells: CHO-K1

[2] = target: T2, recombinant human 5-HT2A receptor (Homo sapiens, UniProt P28223); assay: radioligand binding to serotonin receptor 5-HT2A ([3H] Ketanserin)
T2 construct: expressed in transfected cells; host or cells: CHO-K1
T2 sequence (P28223 whole entry): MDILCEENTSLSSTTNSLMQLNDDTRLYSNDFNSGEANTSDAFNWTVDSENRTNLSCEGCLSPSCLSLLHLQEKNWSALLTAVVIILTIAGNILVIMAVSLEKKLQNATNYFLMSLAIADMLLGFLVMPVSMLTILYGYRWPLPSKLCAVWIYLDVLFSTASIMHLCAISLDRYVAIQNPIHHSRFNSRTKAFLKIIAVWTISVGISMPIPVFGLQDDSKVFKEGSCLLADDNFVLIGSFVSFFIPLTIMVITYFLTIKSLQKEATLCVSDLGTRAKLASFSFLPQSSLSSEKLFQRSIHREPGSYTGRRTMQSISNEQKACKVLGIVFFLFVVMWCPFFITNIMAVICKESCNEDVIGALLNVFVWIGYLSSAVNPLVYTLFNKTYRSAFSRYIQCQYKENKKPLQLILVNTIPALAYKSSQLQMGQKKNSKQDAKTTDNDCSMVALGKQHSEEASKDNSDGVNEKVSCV
Description: 9-C. […] J. Neurochem. […] Ketanserin is used as positive control. […] Values of % I is calculated according to the following equation: […]

human 5-HT7 receptor = target: T3, human 5-HT7 receptor (Homo sapiens, UniProt P34969); assay: radioligand binding to serotonin receptor 5-HT7 ([3H] Lysergic acid diethylamide)
T3 construct: expressed in transfected cells; host or cells: CHO
T3 sequence (P34969 whole entry): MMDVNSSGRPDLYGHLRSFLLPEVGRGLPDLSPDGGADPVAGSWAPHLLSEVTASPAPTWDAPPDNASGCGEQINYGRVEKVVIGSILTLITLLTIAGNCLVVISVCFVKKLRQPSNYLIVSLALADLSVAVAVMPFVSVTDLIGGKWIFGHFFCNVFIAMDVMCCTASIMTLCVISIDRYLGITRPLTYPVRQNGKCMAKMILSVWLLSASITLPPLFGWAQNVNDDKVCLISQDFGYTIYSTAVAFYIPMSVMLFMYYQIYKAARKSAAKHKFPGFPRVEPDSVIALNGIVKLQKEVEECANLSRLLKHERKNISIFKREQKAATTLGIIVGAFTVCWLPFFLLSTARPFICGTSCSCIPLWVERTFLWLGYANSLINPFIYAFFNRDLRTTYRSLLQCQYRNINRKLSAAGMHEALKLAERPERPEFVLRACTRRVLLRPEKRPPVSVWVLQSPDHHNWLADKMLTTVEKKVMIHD
From the text: For this purpose sDNA of human 5-HT7 receptor is expressed in CHO cells as it was described in [Shen Y, Monsma F J Jr, Metcalf M A, Jose P A, Hamblin M W, and Sibley DR. […] J. Biol. Chem. 1993, 268, 18200-18204]. […] J. Pharmacol. Exp. Ther. 1994, 268:1403-1410]. […] Methiothepin is used as positive control.

recombinant human 5-HT1A = target: T4, recombinant human 5-HT1A (Homo sapiens, UniProt P08908); assay: radioligand binding to serotonin receptor 5-HT1A ([3H] 8-OH-DPAT)
T4 construct: expressed in transfected cells; host or cells: CHO
T4 sequence (P08908 1-422): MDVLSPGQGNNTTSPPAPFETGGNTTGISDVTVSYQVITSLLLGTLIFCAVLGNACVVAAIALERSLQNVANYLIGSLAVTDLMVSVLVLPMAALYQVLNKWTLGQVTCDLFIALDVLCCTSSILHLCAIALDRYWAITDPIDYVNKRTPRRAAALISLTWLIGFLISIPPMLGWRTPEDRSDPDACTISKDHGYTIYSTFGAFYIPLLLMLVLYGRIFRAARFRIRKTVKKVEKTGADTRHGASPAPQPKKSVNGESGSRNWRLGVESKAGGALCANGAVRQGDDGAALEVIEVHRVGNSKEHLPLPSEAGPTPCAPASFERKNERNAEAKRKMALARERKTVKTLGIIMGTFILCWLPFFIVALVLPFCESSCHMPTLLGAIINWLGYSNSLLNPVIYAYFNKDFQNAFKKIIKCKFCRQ
From the text: J Pharmacol Exp Ther. 306(1): 301-309, 2003]. […] Metergoline is used as positive control.

adrenergic receptor α1A = target: T5, adrenergic receptor α1A (Rattus norvegicus, UniProt P43140); assay: radioligand binding to adrenergic receptor α1A ([3H] Prazosin); conditions: 10 μM ligand
T5 construct: membrane species from rat submaxillary glands (rat of Wistar breed) are prepared; from tissue; host or cells: rat (Wistar) submaxillary gland membranes
T5 sequence (P43140 1-466): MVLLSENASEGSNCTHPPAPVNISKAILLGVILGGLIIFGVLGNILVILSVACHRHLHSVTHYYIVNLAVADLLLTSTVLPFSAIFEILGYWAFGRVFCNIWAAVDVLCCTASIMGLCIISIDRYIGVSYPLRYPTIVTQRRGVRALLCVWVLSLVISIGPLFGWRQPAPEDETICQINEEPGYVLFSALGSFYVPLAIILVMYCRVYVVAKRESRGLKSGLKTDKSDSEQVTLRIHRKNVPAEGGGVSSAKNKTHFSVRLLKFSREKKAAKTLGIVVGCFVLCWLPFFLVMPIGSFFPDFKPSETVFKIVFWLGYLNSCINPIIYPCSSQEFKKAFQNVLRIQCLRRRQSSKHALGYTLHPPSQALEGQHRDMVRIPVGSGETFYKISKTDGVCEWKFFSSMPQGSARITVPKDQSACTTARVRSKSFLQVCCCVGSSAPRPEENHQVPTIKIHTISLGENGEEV
Description: Determination of investigated compounds' binding to α1A receptor was carried out according to the method described in [Michel A D, Loury D N and Whiting R l. Identification of a single α1A-adrenoceptor corresponding to the α1A-subtype in rat submaxillary gland. Br J. Pharmacol. 98:883-889, 1989]. […] Prazosin is used as positive control.

imidazoline receptor I2 = assay: radioligand binding to imidazoline receptor I2 ([3H] Idazoxan); parameters: species or system rat
Description: Determination of investigated compounds' binding to imidazoline I2 receptor is carried out according to the method described in [Brown C M, MacKinnon A C, McGrath J C, Spedding M and Kilpatrick A T, a2-Adrenoceptor subtypes and imidazoline-like binding in the rat brain. Br J. Pharmacol. 99:803-809, 1990]. […] Idazoxan is used as positive control.

adrenergic receptor α1B = target: T6, adrenergic receptor α1B (Rattus norvegicus, UniProt P15823); assay: radioligand binding to adrenergic receptor α1B ([3H] Prazosin); conditions: 10 μM ligand
T6 construct: membrane species from rat liver (rat of Wistar breed) are prepared; from tissue; host or cells: rat (Wistar) liver membranes
T6 sequence (P15823 1-515): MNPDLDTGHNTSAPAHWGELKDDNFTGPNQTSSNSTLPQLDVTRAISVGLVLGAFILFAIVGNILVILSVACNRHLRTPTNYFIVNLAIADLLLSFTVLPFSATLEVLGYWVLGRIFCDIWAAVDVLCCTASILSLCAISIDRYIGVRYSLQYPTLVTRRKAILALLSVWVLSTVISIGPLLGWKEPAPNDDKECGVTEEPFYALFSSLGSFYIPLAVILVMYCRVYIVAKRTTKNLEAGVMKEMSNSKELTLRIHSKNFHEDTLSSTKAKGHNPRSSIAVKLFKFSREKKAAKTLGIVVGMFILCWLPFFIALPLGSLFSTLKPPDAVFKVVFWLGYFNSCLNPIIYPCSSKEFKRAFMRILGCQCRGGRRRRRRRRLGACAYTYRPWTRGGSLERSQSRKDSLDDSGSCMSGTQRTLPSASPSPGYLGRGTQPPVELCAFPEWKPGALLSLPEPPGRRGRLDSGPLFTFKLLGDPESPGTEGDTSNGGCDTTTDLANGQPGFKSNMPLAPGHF
From the text: Species heterogeneity of hepatic α1A-, α1B-, and α1C-subtypes. Biochem Biophys Res Commun. 186:760-7676 1992]. […] Prazosin is used as positive control.

human α2A receptor = target: T7, human α2A receptor (Homo sapiens, UniProt P08913); assay: radioligand binding to adrenergic receptor α2A ([3H] MK-912); conditions: 10 μM ligand
T7 construct: expressed in transfected cells; host or cells: Sf9
T7 sequence (P08913 1-465): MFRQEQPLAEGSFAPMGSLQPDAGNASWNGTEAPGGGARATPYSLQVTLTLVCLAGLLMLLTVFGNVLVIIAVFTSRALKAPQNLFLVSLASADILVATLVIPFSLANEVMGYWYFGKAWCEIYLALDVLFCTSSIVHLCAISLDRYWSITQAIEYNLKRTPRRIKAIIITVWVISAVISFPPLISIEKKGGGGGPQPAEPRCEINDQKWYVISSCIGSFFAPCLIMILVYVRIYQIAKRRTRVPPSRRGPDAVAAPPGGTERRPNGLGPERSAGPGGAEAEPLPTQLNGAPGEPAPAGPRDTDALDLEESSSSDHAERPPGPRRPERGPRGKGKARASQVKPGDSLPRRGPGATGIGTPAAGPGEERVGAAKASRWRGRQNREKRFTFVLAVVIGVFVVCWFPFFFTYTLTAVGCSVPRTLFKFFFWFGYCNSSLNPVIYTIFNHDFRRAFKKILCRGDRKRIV
From the text: J Pharmacol ExpTher. […] Yohimbine is used as positive control.

human α1D receptor = target: T8, human α1D receptor (Homo sapiens, UniProt P25100); assay: radioligand binding to adrenergic receptor α1D ([3H] Prazosin); conditions: 10 μM ligand
T8 construct: expressed in transfected cells; host or cells: HEK-293
T8 sequence (P25100 1-572): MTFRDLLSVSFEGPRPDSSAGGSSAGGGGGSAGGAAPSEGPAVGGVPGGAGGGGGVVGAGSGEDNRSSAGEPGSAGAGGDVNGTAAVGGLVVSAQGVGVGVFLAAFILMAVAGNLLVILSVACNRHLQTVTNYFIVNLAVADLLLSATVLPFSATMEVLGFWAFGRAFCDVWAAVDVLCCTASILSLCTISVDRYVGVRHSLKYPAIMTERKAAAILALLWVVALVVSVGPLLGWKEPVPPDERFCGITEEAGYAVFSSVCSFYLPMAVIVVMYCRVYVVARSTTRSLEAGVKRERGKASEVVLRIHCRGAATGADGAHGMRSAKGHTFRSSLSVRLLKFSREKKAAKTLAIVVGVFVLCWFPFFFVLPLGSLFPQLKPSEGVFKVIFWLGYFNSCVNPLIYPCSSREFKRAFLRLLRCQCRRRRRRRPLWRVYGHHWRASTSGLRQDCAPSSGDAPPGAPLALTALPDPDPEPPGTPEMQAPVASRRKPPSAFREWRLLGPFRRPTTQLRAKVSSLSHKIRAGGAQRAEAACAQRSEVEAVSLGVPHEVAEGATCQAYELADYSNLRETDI
From the text: 6-C. […] For this purpose sDNA of human α1D receptor is expressed in HEK-293 cells, as it was described in [T L Theroux, T A Esbenshade, R D Peavy and K P Minneman. Coupling efficiencies of human alpha 1-adrenergic receptor subtypes: titration of receptor density and responsiveness with inducible and repressible expression vectors. Mol. Pharmacol.; 50: 1376-1387, 1996]. […] Prazosin is used as positive control.

human H1 receptor = target: T9, human H1 receptor (Homo sapiens, UniProt P35367); assay: radioligand binding to histamine receptor H1 ([3H] Pyrilamine); conditions: 10 μM ligand
T9 construct: expressed in transfected cells; host or cells: CHO-K1
T9 sequence (P35367 whole entry): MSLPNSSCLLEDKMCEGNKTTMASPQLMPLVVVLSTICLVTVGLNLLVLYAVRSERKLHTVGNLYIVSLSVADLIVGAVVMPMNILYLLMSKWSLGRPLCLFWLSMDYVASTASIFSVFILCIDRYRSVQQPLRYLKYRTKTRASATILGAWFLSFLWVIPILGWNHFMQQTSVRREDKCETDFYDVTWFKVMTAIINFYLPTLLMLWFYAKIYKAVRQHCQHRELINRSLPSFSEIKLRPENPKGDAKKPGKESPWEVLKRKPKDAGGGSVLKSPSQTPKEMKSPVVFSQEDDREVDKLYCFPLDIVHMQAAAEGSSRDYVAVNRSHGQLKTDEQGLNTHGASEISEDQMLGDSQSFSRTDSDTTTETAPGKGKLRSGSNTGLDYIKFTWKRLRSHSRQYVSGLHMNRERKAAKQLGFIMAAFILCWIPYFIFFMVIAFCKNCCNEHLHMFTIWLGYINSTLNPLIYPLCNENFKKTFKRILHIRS
From the text: Biochem Biophys Res Comm. 197(3): 1601-1608, 1993]. […] Biochem Biophys Res Comm. 197(3): 1601-1608, 1993].
Pyrilamine is used as positive control.

[3] = target: T10, recombinant human 5-HT6 receptor (Homo sapiens, UniProt P50406); assay: radioligand binding to serotonin receptor 5-HT6 ([3H] Lysergic acid diethylamide)
T10 construct: expressed in transfected cells; host or cells: HeLa
T10 sequence (P50406 whole entry): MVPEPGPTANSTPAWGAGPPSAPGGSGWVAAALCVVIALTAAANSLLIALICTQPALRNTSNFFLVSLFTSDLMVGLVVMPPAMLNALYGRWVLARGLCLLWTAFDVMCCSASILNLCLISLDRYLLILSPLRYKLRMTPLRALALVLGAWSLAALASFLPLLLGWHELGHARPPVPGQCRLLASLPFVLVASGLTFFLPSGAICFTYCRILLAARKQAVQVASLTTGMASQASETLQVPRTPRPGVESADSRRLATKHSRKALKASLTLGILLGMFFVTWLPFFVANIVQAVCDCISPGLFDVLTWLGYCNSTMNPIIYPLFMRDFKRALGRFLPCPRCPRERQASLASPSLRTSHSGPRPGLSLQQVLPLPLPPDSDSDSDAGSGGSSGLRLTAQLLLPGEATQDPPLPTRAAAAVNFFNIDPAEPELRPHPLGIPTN
From the text: Mol. Pharmacol. 43:320-327, 1993]. […] Methiothepin is used as positive control.

[4] = target: T11, recombinant human 5-HT2C receptor (Homo sapiens, UniProt P28335); assay: radioligand binding to serotonin receptor 5-HT2C ([3H] Mesulergine)
T11 construct: expressed in transfected cells; host or cells: CHO-K1
T11 sequence (P28335 33-458): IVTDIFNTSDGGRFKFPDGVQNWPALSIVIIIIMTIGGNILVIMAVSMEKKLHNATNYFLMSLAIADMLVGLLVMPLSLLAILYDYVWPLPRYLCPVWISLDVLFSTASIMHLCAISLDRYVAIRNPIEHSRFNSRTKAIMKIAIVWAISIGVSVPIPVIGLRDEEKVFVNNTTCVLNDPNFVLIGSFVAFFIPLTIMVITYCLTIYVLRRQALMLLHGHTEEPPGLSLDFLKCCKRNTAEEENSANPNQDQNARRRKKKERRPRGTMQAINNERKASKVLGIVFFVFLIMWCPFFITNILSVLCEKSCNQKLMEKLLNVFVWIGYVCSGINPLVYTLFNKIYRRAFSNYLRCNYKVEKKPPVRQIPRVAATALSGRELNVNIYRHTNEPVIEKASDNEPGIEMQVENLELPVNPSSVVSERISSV
From the text: J. Neurochem. 69: 1449-1458, 1997]. […] SB242084 is used as positive control.

T1 sequence (P41595 whole entry): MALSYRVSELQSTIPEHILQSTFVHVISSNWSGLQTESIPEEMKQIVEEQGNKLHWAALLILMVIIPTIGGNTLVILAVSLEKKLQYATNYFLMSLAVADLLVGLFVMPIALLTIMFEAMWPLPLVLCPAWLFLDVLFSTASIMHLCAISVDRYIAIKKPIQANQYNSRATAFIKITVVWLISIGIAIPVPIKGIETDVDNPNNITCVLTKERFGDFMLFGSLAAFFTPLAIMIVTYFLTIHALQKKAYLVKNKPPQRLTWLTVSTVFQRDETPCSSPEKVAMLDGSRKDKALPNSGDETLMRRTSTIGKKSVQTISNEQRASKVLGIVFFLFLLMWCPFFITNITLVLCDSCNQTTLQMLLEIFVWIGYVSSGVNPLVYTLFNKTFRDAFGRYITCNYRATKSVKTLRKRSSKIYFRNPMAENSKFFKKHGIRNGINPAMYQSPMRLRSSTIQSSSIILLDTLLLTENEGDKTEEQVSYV

Compound `Cc1ccc2c(c1)c1c(n2CCc2ccccc2)CCCN(C)C1` [1.2.2(1-2)•HCl] has a 5-HT2B % inhibition ([1]; 10 μM ligand) of 84%, a 5-HT2A % inhibition ([2]; 10 μM ligand) of 89% and a 5-HT7 % inhibition (human 5-HT7 receptor; 10 μM ligand) of 97%. It also gave a 5-HT1A % inhibition (recombinant human 5-HT1A; 10 μM ligand) of 20%.

In the case of `Cc1ccc2c(c1)c1c(n2CCc2cccnc2)CCCN(C)C1.Cl.Cl` [1.2.2(3-2)•2HCl], the “α-Adrenoceptor α1A, % inhibition” value (adrenergic receptor α1A) is reported as 61%, the “imidazoline I2 receptor % inhibition” value (imidazoline receptor I2; 10 μM ligand) is reported as 63% and the “α-Adrenoceptor α1B, % inhibition” value (adrenergic receptor α1B) is reported as 75%. For the same compound, the “α-Adrenoceptor α2A, % inhibition” value (human α2A receptor) was 71%, the “α-Adrenoceptor α1D, % inhibition” value (human α1D receptor) was 60% and the inhibition at 1 µM (recombinant human 5-HT1A; ligand concentration 1 μM) was 6%.

`CN1CCc2c(c3ccccc3n2Cc2ccccc2)C1.Cl` [1.9(1)•HCl, 5-benzyl-2-methyl-2,3,4,5-tetrahydro-1H-pyrido[4,3-b]indole hydrochloride] was tested, and the “α-Adrenoceptor α1A, % inhibition” value (adrenergic receptor α1A) was 70%, the “Histamine receptor H1, % inhibition” value (human H1 receptor) was 97% and the “imidazoline I2 receptor % inhibition” value (imidazoline receptor I2; 3 μM ligand) was 75 (3 μM) %. For the same compound, the “nH 5-HT2B” value [1] was 0.836, the 5-HT2B % inhibition ([1]; 0.1 μM ligand) was 52% and the 5-HT2B % inhibition ([1]; 10 μM ligand) was 99%. For the same compound, the IC50 ([1]; read-out: IC50 5-HT2B) was 106 nM, the Ki ([1]; read-out: Ki 5-HT2B) was 67.2 nM and the IC50 [3] was 330 nM. The Ki [3] was 153 nM, the “nH 5-HT6” value [3] was 1.04 and the 5-HT6 % inhibition ([3]; 10 μM ligand) was 71%. The inhibition at 1 µM ([3]; ligand concentration 1 μM, read-out: 5-HT6 % inhibition) was 79%, the “α-Adrenoceptor α1B, % inhibition” value (adrenergic receptor α1B) was 70% and the “α-Adrenoceptor α2A, % inhibition” value (human α2A receptor) was 100%. For the same compound, the IC50 [2] was 30.1 nM, the Ki [2] was 8.6 nM and the “nH 5-HT2A” value [2] was 0.765. It also gave a 5-HT2A % inhibition ([2]; 0.1 μM ligand) of 68%, a 5-HT2A % inhibition ([2]; 10 μM ligand) of 96% and an IC50 [4] of 33.7 nM. The Ki [4] was 17.7 nM, the “nH 5-HT2C” value [4] was 1.21 and the 5-HT2C % inhibition ([4]; 0.1 μM ligand) was 79%. It also gave a 5-HT2C % inhibition ([4]; 10 μM ligand) of 97%, a 5-HT7 % inhibition (human 5-HT7 receptor; 0.3 μM ligand) of 76% and a 5-HT7 % inhibition (human 5-HT7 receptor; 10 μM ligand) of 91%.
